One block for each compound: values may come before it.
What was measured:
Format in all cases: cell-based
[1] = tested on: Scedosporium prolificans; experiment: Antifungal activity in vitro, resazurin growth inhibition: Scedosporium prolificans (IHEM21157)
In short: (§1)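 Fungi (10^3 cfu/well) grown in RPMI-1640 with L-glutamine, 2% glucose, MOPS pH 7.0, against 2- or 4-fold compound dilutions up to 64 μM. Dermatophytes incubated one week or more at 27° C. Growth inhibition read fluorimetrically (λex 550, λem 590 nm) after resazurin addition and further incubation.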

[2] = tested on: Cryptococcus neoformans; experiment: Antifungal activity in vitro, resazurin growth inhibition: Cryptococcus neoformans (B66663)
In short: as §1

[3] = tested on: Scedosporium apiospermum; experiment: Antifungal activity in vitro, resazurin growth inhibition: Scedosporium apiospermum (IHEM3817)
In short: as §1

[4] = tested on: Rhizopus oryzae; experiment: Antifungal activity in vitro, resazurin growth inhibition: Rhizopus oryzae (IHEM5223)
In short: as §1

[5] = tested on: Rhizomucor miehei; experiment: Antifungal activity in vitro, resazurin growth inhibition: Rhizomucor miehei (IHEM13391)
In short: as §1

[6] = tested on: Sporothrix schenkii; experiment: Antifungal activity in vitro, resazurin growth inhibition: Sporothrix schenkii (B62482)
In short: as §1

[7] = tested on: Candida parapsilosis; experiment: Antifungal activity in vitro, resazurin growth inhibition: Candida parapsilosis (B66126)
In short: as §1

[8] = tested on: Microsporum canis; experiment: Antifungal activity in vitro, resazurin growth inhibition: Microsporum canis (B68128)
In short: (§2)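 Compound dilutions, with 64 μM as the highest in-test level, are spotted onto plates, then an inoculum of 10^3 cfu in RPMI-1640 plus 2% glucose (MOPS, pH 7.0±0.1) is added. Plates are incubated at species-dependent time and temperature, up to a week or more at 27° C. for dermatophytes.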

[9] = tested on: Aspergillus fumigatus; experiment: Antifungal activity in vitro, resazurin growth inhibition: Aspergillus fumigatus (B42928)
In short: as §1

[10] = tested on: Trichophyton rubrum; experiment: Antifungal activity in vitro, resazurin growth inhibition: Trichophyton rubrum (B68183)
In short: as §2

[11] = tested on: Trichophyton mentagrophytes; experiment: Antifungal activity in vitro, resazurin growth inhibition: Trichophyton mentagrophytes (B70554)
In short: as §2

Compound: CCc1ccc(C2=NCc3c(Cl)cc(Cl)cc3-n3cccc32)cn1 [Compound 76]
Inf. I: Scedosporium prolificans IHEM21157, pIC50 [1]: 5.46 | Inf. F: Cryptococcus neoformans B66663, pIC50 [2]: 4.82 | Inf. H: Scedosporium apiospermum IHEM3817, pIC50 [3]: 5.07 | Inf. J: Rhizopus oryzae IHEM5223, pIC50 [4]: <4.19 | Inf. K: Rhizomucor miehei IHEM13391, pIC50 [5]: 4.49 | Inf. A: Sporothrix schenkii B62482, pIC50 [6]: 4.46 | Inf. D: Candida parapsilosis B66126, pIC50 [7]: <4.19 | Inf. B: Microsporum canis B68128, pIC50 [8]: 6.34 | Inf. E: Aspergillus fumigatus B42928, pIC50 [9]: 4.72 | Inf. C: Trichophyton rubrum B68183, pIC50 [10]: 5.75 | Inf. G: Trichophyton mentagrophytes B70554, pIC50 [11]: 5.00

Compound: Clc1ccc(C2=NCc3c(Cl)cccc3-n3cccc32)cn1 [Compound 77]
Inf. I: Scedosporium prolificans IHEM21157, pIC50 [1]: 5.57 | Inf. F: Cryptococcus neoformans B66663, pIC50 [2]: 5.03 | Inf. H: Scedosporium apiospermum IHEM3817, pIC50 [3]: 4.88 | Inf. J: Rhizopus oryzae IHEM5223, pIC50 [4]: <4.19 | Inf. K: Rhizomucor miehei IHEM13391, pIC50 [5]: <4.19 | Inf. A: Sporothrix schenkii B62482, pIC50 [6]: 4.52 | Inf. D: Candida parapsilosis B66126, pIC50 [7]: 4.69 | Inf. B: Microsporum canis B68128, pIC50 [8]: 5.67 | Inf. E: Aspergillus fumigatus B42928, pIC50 [9]: 6.05 | Inf. C: Trichophyton rubrum B68183, pIC50 [10]: 6.22 | Inf. G: Trichophyton mentagrophytes B70554, pIC50 [11]: 5.71

Compound: Clc1cccc2c1-n1cccc1C(c1ccc3sccc3c1)=NC2 [Compound 174]
Inf. I: Scedosporium prolificans IHEM21157, pIC50 [1]: 4.80 | Inf. F: Cryptococcus neoformans B66663, pIC50 [2]: 6.43 | Inf. H: Scedosporium apiospermum IHEM3817, pIC50 [3]: <4.19 | Inf. J: Rhizopus oryzae IHEM5223, pIC50 [4]: <4.19 | Inf. K: Rhizomucor miehei IHEM13391, pIC50 [5]: <4.19 | Inf. A: Sporothrix schenkii B62482, pIC50 [6]: 6.06 | Inf. D: Candida parapsilosis B66126, pIC50 [7]: <4.19 | Inf. B: Microsporum canis B68128, pIC50 [8]: 6.54 | Inf. E: Aspergillus fumigatus B42928, pIC50 [9]: 6.30 | Inf. C: Trichophyton rubrum B68183, pIC50 [10]: 6.87 | Inf. G: Trichophyton mentagrophytes B70554, pIC50 [11]: 6.80

Next, values leading:

Inf. I: Scedosporium prolificans IHEM21157, pIC50 [1]: 5.71 | Inf. F: Cryptococcus neoformans B66663, pIC50 [2]: <4.19 | Inf. H: Scedosporium apiospermum IHEM3817, pIC50 [3]: <4.19 | Inf. J: Rhizopus oryzae IHEM5223, pIC50 [4]: <4.19 | Inf. K: Rhizomucor miehei IHEM13391, pIC50 [5]: <4.19 | Inf. A: Sporothrix schenkii B62482, pIC50 [6]: <4.19 | Inf. D: Candida parapsilosis B66126, pIC50 [7]: <4.19 | Inf. B: Microsporum canis B68128, pIC50 [8]: 5.97 | Inf. E: Aspergillus fumigatus B42928, pIC50 [9]: 4.94 | Inf. C: Trichophyton rubrum B68183, pIC50 [10]: 6.54 | Inf. G: Trichophyton mentagrophytes B70554, pIC50 [11]: 5.18
Compound: FC(F)(F)c1ccc(C2=NCc3ccccc3-n3cccc32)cn1 [Compound 87]

Inf. I: Scedosporium prolificans IHEM21157, pIC50 [1]: 6.31 | Inf. F: Cryptococcus neoformans B66663, pIC50 [2]: 5.86 | Inf. H: Scedosporium apiospermum IHEM3817, pIC50 [3]: 5.72 | Inf. J: Rhizopus oryzae IHEM5223, pIC50 [4]: <4.19 | Inf. K: Rhizomucor miehei IHEM13391, pIC50 [5]: 5.10 | Inf. A: Sporothrix schenkii B62482, pIC50 [6]: 5.70 | Inf. D: Candida parapsilosis B66126, pIC50 [7]: 4.90 | Inf. B: Microsporum canis B68128, pIC50 [8]: 6.01 | Inf. E: Aspergillus fumigatus B42928, pIC50 [9]: 5.38 | Inf. C: Trichophyton rubrum B68183, pIC50 [10]: 6.79 | Inf. G: Trichophyton mentagrophytes B70554, pIC50 [11]: 5.97
Compound: Clc1cccc2c1-n1cccc1C(c1cc3ccccc3s1)=NC2 [Compound 167]

Inf. I: Scedosporium prolificans IHEM21157, pIC50 [1]: 5.93 | Inf. F: Cryptococcus neoformans B66663, pIC50 [2]: 4.57 | Inf. H: Scedosporium apiospermum IHEM3817, pIC50 [3]: <4.19 | Inf. J: Rhizopus oryzae IHEM5223, pIC50 [4]: <4.19 | Inf. K: Rhizomucor miehei IHEM13391, pIC50 [5]: <4.19 | Inf. A: Sporothrix schenkii B62482, pIC50 [6]: 5.52 | Inf. D: Candida parapsilosis B66126, pIC50 [7]: 4.68 | Inf. B: Microsporum canis B68128, pIC50 [8]: 6.14 | Inf. E: Aspergillus fumigatus B42928, pIC50 [9]: 6.00 | Inf. C: Trichophyton rubrum B68183, pIC50 [10]: 8.25 | Inf. G: Trichophyton mentagrophytes B70554, pIC50 [11]: 6.15
Compound: Clc1cccc2c1CN=C(c1ccc3ccoc3c1)c1cccn1-2 [Compound 150]

Inf. I: Scedosporium prolificans IHEM21157, pIC50 [1]: 6.21 | Inf. F: Cryptococcus neoformans B66663, pIC50 [2]: 5.10 | Inf. H: Scedosporium apiospermum IHEM3817, pIC50 [3]: 5.16 | Inf. J: Rhizopus oryzae IHEM5223, pIC50 [4]: 4.48 | Inf. K: Rhizomucor miehei IHEM13391, pIC50 [5]: 4.50 | Inf. A: Sporothrix schenkii B62482, pIC50 [6]: 5.52 | Inf. D: Candida parapsilosis B66126, pIC50 [7]: 4.74 | Inf. B: Microsporum canis B68128, pIC50 [8]: 6.81 | Inf. E: Aspergillus fumigatus B42928, pIC50 [9]: 6.00 | Inf. C: Trichophyton rubrum B68183, pIC50 [10]: 7.18 | Inf. G: Trichophyton mentagrophytes B70554, pIC50 [11]: 6.89
Compound: Cc1ccc2cc(C3=NCc4ccccc4-n4cccc43)oc2c1 [Compound 137]

Reference: patent publication US9493468B2, “Antifungal 5,6-dihydro-4H-pyrrolo[1,2-a][1,4]benzo-diazepines and 6H-pyrrolo[1,2-a][1,4]benzodiazepines substituted with heterocyclic derivatives” (Janssen Pharmaceutica NV, priority 2011, dated 2016)
